{"source": "paper PMC8120209", "about": "“Longitudinal evaluation of a novel BChE PET tracer as an early in vivo biomarker in the brain of a mouse model for Alzheimer disease” (Theranostics, 2021)", "key": {"5-HT2B(h)": {"molecular_target": "T1, 5-HT2B(h) (Homo sapiens, UniProt P41595)", "T1 construct": "gene HTR2B", "assay": "biochemical", "design": "Eurofins SafetyScreen44 radioligand displacement, inhibition of control specific binding", "settings": "read-out: % Inhibition of Control Specific Binding, Mean"}, "β2(h)": {"molecular_target": "T2, β2(h) (Homo sapiens, UniProt P07550)", "T2 construct": "gene ADRB2", "T2 sequence (P07550 whole entry)": "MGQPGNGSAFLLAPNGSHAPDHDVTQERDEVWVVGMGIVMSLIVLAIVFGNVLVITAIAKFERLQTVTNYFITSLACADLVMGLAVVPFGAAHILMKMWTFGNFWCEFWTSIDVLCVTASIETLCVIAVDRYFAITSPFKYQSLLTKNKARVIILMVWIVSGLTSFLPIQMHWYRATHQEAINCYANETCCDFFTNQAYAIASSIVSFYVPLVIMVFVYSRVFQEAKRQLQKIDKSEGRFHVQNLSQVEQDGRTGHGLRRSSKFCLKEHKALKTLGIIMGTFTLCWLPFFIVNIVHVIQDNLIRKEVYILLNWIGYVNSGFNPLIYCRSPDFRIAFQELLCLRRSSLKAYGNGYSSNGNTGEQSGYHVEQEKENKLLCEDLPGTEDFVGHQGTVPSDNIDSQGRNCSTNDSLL", "assay": "biochemical", "design": "Eurofins SafetyScreen44 radioligand displacement, inhibition of control specific binding", "settings": "read-out: % Inhibition of Control Specific Binding, Mean"}, "5-HT5a(h)": {"molecular_target": "T3, 5-HT5a(h) (Homo sapiens, UniProt P47898)", "T3 construct": "gene HTR5A", "assay": "biochemical", "design": "Eurofins SafetyScreen44 radioligand displacement, inhibition of control specific binding", "settings": "read-out: % Inhibition of Control Specific Binding, Mean"}, "μ (MOP) (h)": {"molecular_target": "T4, μ (MOP) (h) (Homo sapiens, UniProt P35372)", "T4 construct": "gene OPRM1", "assay": "biochemical", "design": "Eurofins SafetyScreen44 radioligand displacement, inhibition of control specific binding", "settings": "read-out: % Inhibition of Control Specific Binding, Mean"}, "5-HT6 (h)": {"molecular_target": "T5, 5-HT6 (h) (Homo sapiens, UniProt P50406)", "T5 construct": "gene HTR6", "assay": "biochemical", "design": "Eurofins SafetyScreen44 radioligand displacement, inhibition of control specific binding", "settings": "read-out: % Inhibition of Control Specific Binding, Mean"}, "[1]": {"molecular_target": "T6, norepinephrine transporter(h) (Homo sapiens, UniProt P23975)", "T6 construct": "gene SLC6A2", "T6 sequence (P23975 whole entry)": "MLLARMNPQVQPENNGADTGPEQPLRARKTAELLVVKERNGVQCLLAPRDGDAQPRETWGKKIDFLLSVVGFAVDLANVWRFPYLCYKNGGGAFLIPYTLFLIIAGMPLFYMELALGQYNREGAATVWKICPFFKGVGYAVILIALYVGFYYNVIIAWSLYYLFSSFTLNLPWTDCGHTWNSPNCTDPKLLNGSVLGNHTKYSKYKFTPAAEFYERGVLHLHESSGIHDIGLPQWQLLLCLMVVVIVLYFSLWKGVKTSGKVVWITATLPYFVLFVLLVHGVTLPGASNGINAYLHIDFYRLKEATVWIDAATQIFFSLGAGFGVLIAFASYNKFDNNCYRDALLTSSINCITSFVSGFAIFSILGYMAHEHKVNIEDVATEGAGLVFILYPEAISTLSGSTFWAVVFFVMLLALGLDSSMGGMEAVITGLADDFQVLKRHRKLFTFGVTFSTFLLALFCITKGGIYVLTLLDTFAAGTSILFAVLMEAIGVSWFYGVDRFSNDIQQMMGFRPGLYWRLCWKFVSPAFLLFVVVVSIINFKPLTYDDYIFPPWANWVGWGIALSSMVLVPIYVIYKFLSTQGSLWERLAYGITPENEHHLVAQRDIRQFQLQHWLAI", "assay": "biochemical", "design": "Eurofins SafetyScreen44 radioligand displacement, inhibition of control specific binding", "settings": "read-out: % Inhibition of Control Specific Binding, Mean"}, "COX2(h)": {"molecular_target": "T7, COX2(h) (Homo sapiens, UniProt P35354)", "T7 construct": "gene PTGS2", "T7 sequence (P35354 whole entry)": "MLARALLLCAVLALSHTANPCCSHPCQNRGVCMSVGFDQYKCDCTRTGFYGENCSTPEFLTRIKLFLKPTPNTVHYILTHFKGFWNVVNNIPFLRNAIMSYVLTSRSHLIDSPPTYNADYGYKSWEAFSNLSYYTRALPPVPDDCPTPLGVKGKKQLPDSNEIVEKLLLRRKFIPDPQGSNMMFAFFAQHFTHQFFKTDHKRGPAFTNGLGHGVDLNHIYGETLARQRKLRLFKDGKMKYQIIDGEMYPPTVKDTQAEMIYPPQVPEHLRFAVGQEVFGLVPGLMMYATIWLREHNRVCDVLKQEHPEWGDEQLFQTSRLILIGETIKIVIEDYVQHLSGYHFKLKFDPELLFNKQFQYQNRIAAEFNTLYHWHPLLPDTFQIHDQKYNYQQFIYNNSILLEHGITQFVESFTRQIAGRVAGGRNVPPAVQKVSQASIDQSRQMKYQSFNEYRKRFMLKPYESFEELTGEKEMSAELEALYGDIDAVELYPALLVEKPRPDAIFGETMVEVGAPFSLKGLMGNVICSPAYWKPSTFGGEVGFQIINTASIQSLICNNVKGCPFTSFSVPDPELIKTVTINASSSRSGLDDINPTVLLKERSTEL", "assay": "biochemical", "design": "Eurofins SafetyScreen44 enzyme assays, inhibition of control specific activity", "settings": "read-out: % Inhibition of Control Values, Mean"}, "5-HT7 (h)": {"molecular_target": "T8, 5-HT7 (h) (Homo sapiens, UniProt P34969)", "T8 construct": "gene HTR7", "assay": "biochemical", "design": "Eurofins SafetyScreen44 radioligand displacement, inhibition of control specific binding", "settings": "read-out: % Inhibition of Control Specific Binding, Mean"}, "β1(h)": {"molecular_target": "T9, β1(h) (Homo sapiens, UniProt P08588)", "T9 construct": "gene ADRB1", "T9 sequence (P08588 whole entry)": "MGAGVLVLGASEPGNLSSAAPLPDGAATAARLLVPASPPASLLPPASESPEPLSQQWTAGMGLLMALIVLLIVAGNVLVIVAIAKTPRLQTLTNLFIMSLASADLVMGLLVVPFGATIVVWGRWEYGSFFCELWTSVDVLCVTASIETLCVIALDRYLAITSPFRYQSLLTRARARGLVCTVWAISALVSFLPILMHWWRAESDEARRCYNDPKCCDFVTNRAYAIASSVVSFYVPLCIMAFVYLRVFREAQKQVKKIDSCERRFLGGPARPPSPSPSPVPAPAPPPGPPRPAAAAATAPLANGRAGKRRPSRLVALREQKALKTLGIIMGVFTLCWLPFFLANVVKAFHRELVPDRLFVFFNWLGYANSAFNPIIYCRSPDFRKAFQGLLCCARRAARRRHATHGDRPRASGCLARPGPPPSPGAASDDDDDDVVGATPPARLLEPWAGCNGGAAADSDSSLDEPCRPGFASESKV", "assay": "biochemical", "design": "Eurofins SafetyScreen44 radioligand displacement, inhibition of control specific binding", "settings": "read-out: % Inhibition of Control Specific Binding, Mean"}, "D3(h)": {"molecular_target": "T10, D3(h) (Homo sapiens, UniProt P35462)", "T10 construct": "gene DRD3", "assay": "biochemical", "design": "Eurofins SafetyScreen44 radioligand displacement, inhibition of control specific binding", "settings": "read-out: % Inhibition of Control Specific Binding, Mean"}, "M2 (h)": {"molecular_target": "T11, M2 (h) (Homo sapiens, UniProt P08172)", "T11 construct": "gene CHRM2", "assay": "biochemical", "design": "Eurofins SafetyScreen44 radioligand displacement, inhibition of control specific binding", "settings": "read-out: % Inhibition of Control Specific Binding, Mean"}, "H1(h)": {"molecular_target": "T12, H1(h) (Homo sapiens, UniProt P35367)", "T12 construct": "gene HRH1", "assay": "biochemical", "design": "Eurofins SafetyScreen44 radioligand displacement, inhibition of control specific binding", "settings": "read-out: % Inhibition of Control Specific Binding, Mean"}, "A2A(h)": {"molecular_target": "T13, A2A(h) (Homo sapiens, UniProt P29274)", "T13 construct": "gene ADORA2A", "T13 sequence (P29274 whole entry)": "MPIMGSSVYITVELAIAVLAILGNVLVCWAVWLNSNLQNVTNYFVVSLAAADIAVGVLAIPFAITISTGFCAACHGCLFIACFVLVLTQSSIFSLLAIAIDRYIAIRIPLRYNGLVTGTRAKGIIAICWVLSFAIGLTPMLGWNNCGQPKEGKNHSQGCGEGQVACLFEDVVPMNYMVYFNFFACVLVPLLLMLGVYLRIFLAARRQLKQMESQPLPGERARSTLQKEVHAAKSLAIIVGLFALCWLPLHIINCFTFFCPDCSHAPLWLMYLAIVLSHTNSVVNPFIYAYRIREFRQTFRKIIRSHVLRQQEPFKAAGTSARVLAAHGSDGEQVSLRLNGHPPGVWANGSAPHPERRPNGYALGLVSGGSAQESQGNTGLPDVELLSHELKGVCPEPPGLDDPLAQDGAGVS", "assay": "biochemical", "design": "Eurofins SafetyScreen44 radioligand displacement, inhibition of control specific binding", "settings": "read-out: % Inhibition of Control Specific Binding, Mean"}, "M5(h)": {"molecular_target": "T14, M5(h) (Homo sapiens, UniProt P08912)", "T14 construct": "gene CHRM5", "T14 sequence (P08912 whole entry)": "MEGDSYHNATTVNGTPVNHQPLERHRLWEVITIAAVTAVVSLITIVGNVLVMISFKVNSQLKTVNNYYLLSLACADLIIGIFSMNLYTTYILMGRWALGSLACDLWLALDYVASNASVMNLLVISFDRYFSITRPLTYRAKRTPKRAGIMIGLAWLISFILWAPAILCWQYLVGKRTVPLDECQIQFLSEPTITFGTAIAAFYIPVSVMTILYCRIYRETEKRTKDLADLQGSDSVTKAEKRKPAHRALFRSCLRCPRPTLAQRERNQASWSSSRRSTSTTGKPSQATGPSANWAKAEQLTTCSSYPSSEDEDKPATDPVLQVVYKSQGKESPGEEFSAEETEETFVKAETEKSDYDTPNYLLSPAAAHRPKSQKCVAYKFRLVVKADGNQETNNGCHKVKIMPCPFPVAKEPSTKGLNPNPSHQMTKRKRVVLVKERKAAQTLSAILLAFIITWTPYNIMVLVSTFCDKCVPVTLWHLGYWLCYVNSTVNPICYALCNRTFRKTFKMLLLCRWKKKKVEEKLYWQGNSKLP", "assay": "biochemical", "design": "Eurofins SafetyScreen44 radioligand displacement, inhibition of control specific binding", "settings": "read-out: % Inhibition of Control Specific Binding, Mean"}, "COX1(h)": {"molecular_target": "T15, COX1(h) (Homo sapiens, UniProt P23219)", "T15 construct": "gene PTGS1", "assay": "biochemical", "design": "Eurofins SafetyScreen44 enzyme assays, inhibition of control specific activity", "settings": "read-out: % Inhibition of Control Values, Mean"}, "5-HT transporter (h)": {"molecular_target": "T16, 5-HT transporter (h) (Homo sapiens, UniProt P31645)", "T16 construct": "gene SLC6A4", "T16 sequence (P31645 whole entry)": "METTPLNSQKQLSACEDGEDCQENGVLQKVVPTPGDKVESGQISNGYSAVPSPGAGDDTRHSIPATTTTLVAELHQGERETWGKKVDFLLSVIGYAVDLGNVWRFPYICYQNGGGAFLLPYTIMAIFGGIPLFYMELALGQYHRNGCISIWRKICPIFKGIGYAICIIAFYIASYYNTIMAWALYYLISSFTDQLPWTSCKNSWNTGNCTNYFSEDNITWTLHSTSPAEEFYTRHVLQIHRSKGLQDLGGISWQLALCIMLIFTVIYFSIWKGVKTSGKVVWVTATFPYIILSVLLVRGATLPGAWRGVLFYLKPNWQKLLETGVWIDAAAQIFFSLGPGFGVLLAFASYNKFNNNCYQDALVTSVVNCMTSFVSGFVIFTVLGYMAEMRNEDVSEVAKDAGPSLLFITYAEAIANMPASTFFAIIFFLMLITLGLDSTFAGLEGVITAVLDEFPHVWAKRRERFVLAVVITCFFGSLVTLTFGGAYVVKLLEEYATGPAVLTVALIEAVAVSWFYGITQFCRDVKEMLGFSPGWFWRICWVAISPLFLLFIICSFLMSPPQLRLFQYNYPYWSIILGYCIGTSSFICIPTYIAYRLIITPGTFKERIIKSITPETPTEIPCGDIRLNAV", "assay": "biochemical", "design": "Eurofins SafetyScreen44 radioligand displacement, inhibition of control specific binding", "settings": "read-out: % Inhibition of Control Specific Binding, Mean"}, "δ (DOP) (h)": {"molecular_target": "T17, δ (DOP) (h) (Homo sapiens, UniProt P41143)", "T17 construct": "gene OPRD1", "T17 sequence (P41143 whole entry)": "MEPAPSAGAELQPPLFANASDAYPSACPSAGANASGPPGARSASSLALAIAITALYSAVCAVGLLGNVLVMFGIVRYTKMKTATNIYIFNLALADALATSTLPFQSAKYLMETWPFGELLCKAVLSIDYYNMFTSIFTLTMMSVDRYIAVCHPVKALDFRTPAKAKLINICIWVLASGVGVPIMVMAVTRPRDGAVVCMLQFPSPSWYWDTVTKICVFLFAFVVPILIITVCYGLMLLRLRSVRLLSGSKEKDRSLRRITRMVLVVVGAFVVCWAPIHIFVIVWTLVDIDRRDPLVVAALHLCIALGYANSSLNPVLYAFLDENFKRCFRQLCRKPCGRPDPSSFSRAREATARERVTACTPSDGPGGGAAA", "assay": "biochemical", "design": "Eurofins SafetyScreen44 radioligand displacement, inhibition of control specific binding", "settings": "read-out: % Inhibition of Control Specific Binding, Mean"}, "N muscle-type (h)": {"molecular_target": "T18, N muscle-type (h) (Homo sapiens, UniProt P02708)", "T18 construct": "gene CHRNA1", "assay": "biochemical", "design": "Eurofins SafetyScreen44 radioligand displacement, inhibition of control specific binding", "settings": "read-out: % Inhibition of Control Specific Binding, Mean"}, "PDE3A (h)": {"molecular_target": "PDE3A (h) (Homo sapiens, UniProt Q14432)", "assay": "biochemical", "design": "Eurofins SafetyScreen44 enzyme assays, inhibition of control specific activity", "settings": "read-out: % Inhibition of Control Values, Mean"}, "dopamine transporter(h)": {"molecular_target": "T19, dopamine transporter(h) (Homo sapiens, UniProt Q01959)", "T19 construct": "gene SLC6A3", "assay": "biochemical", "design": "Eurofins SafetyScreen44 radioligand displacement, inhibition of control specific binding", "settings": "read-out: % Inhibition of Control Specific Binding, Mean"}, "[2]": {"molecular_target": "T20, Potassium Channel hERG (human) (Homo sapiens, UniProt Q12809)", "T20 construct": "gene KCNH2", "assay": "in vitro", "design": "Eurofins SafetyScreen44 radioligand displacement, inhibition of control specific binding", "settings": "read-out: % Inhibition of Control Specific Binding, Mean"}, "N neuronal α4β2 (h)": {"molecular_target": "T21, N neuronal α4β2 (h) (Homo sapiens, UniProt P17787+P43681)", "T21 construct": "gene CHRNB2", "assay": "biochemical", "design": "Eurofins SafetyScreen44 radioligand displacement, inhibition of control specific binding", "settings": "read-out: % Inhibition of Control Specific Binding, Mean"}, "M4(h)": {"molecular_target": "T22, M4(h) (Homo sapiens, UniProt P08173)", "T22 construct": "gene CHRM4", "T22 sequence (P08173 whole entry)": "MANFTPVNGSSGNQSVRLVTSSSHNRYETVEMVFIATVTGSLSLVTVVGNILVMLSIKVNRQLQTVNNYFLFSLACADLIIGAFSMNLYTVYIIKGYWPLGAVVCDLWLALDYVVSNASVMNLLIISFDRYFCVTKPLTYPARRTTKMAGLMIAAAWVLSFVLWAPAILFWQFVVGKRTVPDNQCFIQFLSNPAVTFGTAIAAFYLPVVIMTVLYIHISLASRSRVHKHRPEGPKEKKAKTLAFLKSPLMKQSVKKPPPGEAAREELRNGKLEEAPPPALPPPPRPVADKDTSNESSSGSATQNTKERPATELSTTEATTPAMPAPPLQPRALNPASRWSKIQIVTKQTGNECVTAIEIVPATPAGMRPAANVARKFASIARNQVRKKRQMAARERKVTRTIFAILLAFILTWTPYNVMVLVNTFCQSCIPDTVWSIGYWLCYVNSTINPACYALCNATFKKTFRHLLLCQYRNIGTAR", "assay": "biochemical", "design": "Eurofins SafetyScreen44 radioligand displacement, inhibition of control specific binding", "settings": "read-out: % Inhibition of Control Specific Binding, Mean"}, "[3]": {"molecular_target": "T23, 5-HT1B (antagonist radioligand) (Rattus norvegicus, UniProt P28564)", "T23 construct": "gene Htr1b", "assay": "biochemical", "settings": "read-out: % Inhibition of Control Specific Binding Mean"}, "[4]": {"molecular_target": "T24, 5-HT1D (agonist radioligand) (Rattus norvegicus, UniProt P28565)", "T24 construct": "gene Htr1d", "T24 sequence (P28565 whole entry)": "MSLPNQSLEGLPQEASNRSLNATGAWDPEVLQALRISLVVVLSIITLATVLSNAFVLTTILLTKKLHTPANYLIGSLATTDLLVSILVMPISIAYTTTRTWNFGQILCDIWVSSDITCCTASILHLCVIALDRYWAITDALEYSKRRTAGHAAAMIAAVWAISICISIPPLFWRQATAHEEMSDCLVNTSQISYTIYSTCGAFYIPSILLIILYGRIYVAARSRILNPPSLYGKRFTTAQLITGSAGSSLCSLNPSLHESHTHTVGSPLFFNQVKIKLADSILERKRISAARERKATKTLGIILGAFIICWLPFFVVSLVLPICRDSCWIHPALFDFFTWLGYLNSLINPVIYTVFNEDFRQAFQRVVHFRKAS", "assay": "biochemical", "settings": "read-out: % Inhibition of Control Specific Binding Mean"}, "acetylcholinesterase (h)": {"molecular_target": "T25, acetylcholinesterase (h) (Homo sapiens, UniProt P22303)", "T25 construct": "gene ACHE", "assay": "biochemical", "design": "Eurofins SafetyScreen44 enzyme assays, inhibition of control specific activity", "settings": "read-out: % Inhibition of Control Values, Mean"}}}
{"smiles": "COCCN(CC1CCCN(Cc2ccccc2)C1)S(=O)(=O)c1ccc2ccccc2c1", "note": "(racemic) [compound 4, (±)N-((1-benzylpiperidin-3-yl)methyl)-N-(2-methoxyethyl)naphthalene-2-sulfonamide]", "values": [{"measurement": "inhibition at 10 µM", "setting": "5-HT2B(h)", "result": 88.4, "unit": "%"}, {"measurement": "inhibition at 10 µM", "setting": "β2(h)", "result": 10.5, "unit": "%"}, {"measurement": "inhibition at 10 µM", "setting": "5-HT5a(h)", "result": 42.5, "unit": "%"}, {"measurement": "inhibition at 10 µM", "setting": "μ (MOP) (h)", "result": 82.7, "unit": "%"}, {"measurement": "inhibition at 10 µM", "setting": "5-HT6 (h)", "result": 87.1, "unit": "%"}, {"measurement": "inhibition at 10 µM", "setting": "[1]", "result": 34.1, "unit": "%"}, {"measurement": "inhibition at 10 µM", "setting": "COX2(h)", "result": 2.2, "unit": "%"}, {"measurement": "inhibition at 10 µM", "setting": "5-HT7 (h)", "result": 84.3, "unit": "%"}, {"measurement": "inhibition at 10 µM", "setting": "β1(h)", "result": 4.5, "unit": "%"}, {"measurement": "inhibition at 10 µM", "setting": "D3(h)", "result": 38.4, "unit": "%"}, {"measurement": "inhibition at 10 µM", "setting": "M2 (h)", "result": 85.7, "unit": "%"}, {"measurement": "inhibition at 10 µM", "setting": "H1(h)", "result": 29, "unit": "%"}, {"measurement": "inhibition at 10 µM", "setting": "A2A(h)", "result": 20.5, "unit": "%"}, {"measurement": "inhibition at 10 µM", "setting": "M5(h)", "result": 17.6, "unit": "%"}, {"measurement": "inhibition at 10 µM", "setting": "COX1(h)", "result": 0.4, "unit": "%"}, {"measurement": "inhibition at 10 µM", "setting": "5-HT transporter (h)", "result": 12.7, "unit": "%"}, {"measurement": "inhibition at 10 µM", "setting": "δ (DOP) (h)", "result": 32.8, "unit": "%"}, {"measurement": "inhibition at 10 µM", "setting": "N muscle-type (h)", "result": 23, "unit": "%"}, {"measurement": "inhibition at 10 µM", "setting": "PDE3A (h)", "result": 7, "unit": "%"}, {"measurement": "inhibition at 10 µM", "setting": "dopamine transporter(h)", "result": 26, "unit": "%"}, {"measurement": "inhibition at 10 µM", "setting": "[2]", "result": 84.8, "unit": "%"}, {"measurement": "inhibition at 10 µM", "setting": "N neuronal α4β2 (h)", "result": -17.7, "unit": "%"}, {"measurement": "inhibition at 10 µM", "setting": "M4(h)", "result": 63.2, "unit": "%"}, {"measurement": "inhibition at 10 µM", "setting": "[3]", "result": -12.8, "unit": "%"}, {"measurement": "inhibition at 10 µM", "setting": "[4]", "result": 33, "unit": "%"}, {"measurement": "inhibition at 10 µM", "setting": "acetylcholinesterase (h)", "result": 12.3, "unit": "%"}]}
